Active and inactive are the calls of the source. No cut-off for these calls is given here.

Assay [1] in a line: Antioxidant activity assessed as ABTS radical scavenging activity. It counts as functional.
Assay [2] has as its target Cholinesterase (Equus caballus, UniProt P81908). In words: Inhibition of equine serum BuChE using butyrylthiocholine chloride as substrate incubated for 15 to 20 mins by Ellman's method. It counts as cell-free.
Assay [3] can be described thus: Selectivity index, ratio of IC50 for equine serum BuChE using butyrylthiocholine chloride as substrate to IC50 for electric eel AChE using acetylthiocholine iodide as substrate incubated for 15 to 20 mins by Ellman's method. The conditions noted are these: time 15-20 min.
In assay [4] the target is Acetylcholinesterase (Electrophorus electricus, UniProt O42275). In words: Inhibition of electric eel AChE using acetylthiocholine iodide as substrate incubated for 15 to 20 mins by Ellman's method.
Chain of Acetylcholinesterase (O42275 whole entry): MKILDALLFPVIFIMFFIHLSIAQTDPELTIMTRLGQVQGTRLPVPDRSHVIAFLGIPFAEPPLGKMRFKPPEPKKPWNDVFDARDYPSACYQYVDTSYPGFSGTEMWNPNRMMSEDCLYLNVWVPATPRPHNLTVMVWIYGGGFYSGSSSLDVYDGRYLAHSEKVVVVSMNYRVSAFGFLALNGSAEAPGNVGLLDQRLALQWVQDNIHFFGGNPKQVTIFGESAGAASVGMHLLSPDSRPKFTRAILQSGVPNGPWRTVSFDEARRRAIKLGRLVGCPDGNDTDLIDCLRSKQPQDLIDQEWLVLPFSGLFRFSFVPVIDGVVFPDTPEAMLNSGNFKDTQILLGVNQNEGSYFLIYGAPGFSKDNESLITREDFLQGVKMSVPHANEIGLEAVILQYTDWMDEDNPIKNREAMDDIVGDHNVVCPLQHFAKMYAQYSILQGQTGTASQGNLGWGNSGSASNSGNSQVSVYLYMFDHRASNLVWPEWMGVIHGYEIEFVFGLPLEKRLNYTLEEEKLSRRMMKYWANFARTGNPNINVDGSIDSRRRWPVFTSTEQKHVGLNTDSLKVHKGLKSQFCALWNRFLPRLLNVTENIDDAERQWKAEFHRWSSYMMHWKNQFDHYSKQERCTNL
Assay [5] is described as follows: Cytotoxicity against human PBMC assessed as reduction in cell viability. It counts as ADME, tissue-based.
The target of assay [6] is Acetylcholinesterase (Electrophorus electricus) (UniProt O42275). In words: Mixed type inhibition of electric eel AChE assessed as decrease in Vmax at 3.2 to 12.8 uM using varying levels of acetylthiocholine iodide as substrate by Lineweaver-Burk plot analysis. The settings on record: dose 3.2-12.8 µM.
Chain of Acetylcholinesterase (Electrophorus electricus) (O42275 24-633 limits assumed): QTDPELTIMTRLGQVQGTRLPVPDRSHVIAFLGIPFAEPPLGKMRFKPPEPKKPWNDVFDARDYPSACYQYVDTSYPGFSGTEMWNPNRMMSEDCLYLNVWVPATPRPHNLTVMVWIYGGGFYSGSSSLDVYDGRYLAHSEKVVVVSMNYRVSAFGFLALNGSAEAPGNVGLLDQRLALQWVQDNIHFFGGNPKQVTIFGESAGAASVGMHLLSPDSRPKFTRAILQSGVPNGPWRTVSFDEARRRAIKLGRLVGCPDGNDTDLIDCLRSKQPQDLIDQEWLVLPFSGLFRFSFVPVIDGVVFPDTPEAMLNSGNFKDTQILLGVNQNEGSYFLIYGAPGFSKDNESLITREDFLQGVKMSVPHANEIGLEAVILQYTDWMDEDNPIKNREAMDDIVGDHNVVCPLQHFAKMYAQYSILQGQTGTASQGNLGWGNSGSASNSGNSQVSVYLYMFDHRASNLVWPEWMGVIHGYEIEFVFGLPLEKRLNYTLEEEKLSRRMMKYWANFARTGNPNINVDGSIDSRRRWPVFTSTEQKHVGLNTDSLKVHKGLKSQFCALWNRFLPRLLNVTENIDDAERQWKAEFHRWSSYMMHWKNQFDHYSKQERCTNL
Assay [7] relates to HepG2. The assay can be described thus: Cytotoxicity against human HepG2 cells assessed as reduction in cell viability. Type of assay: ADME, cell-based.
Assay [8] concerns the target Acetylcholinesterase (Electrophorus electricus) (UniProt O42275). The assay can be described thus: Mixed type inhibition of electric eel AChE assessed as increase in Km at 3.2 to 12.8 uM using varying levels of acetylthiocholine iodide as substrate by Lineweaver-Burk plot analysis. The conditions noted are these: dose 3.2-12.8 µM.

Chain of Cholinesterase (P81908 whole entry): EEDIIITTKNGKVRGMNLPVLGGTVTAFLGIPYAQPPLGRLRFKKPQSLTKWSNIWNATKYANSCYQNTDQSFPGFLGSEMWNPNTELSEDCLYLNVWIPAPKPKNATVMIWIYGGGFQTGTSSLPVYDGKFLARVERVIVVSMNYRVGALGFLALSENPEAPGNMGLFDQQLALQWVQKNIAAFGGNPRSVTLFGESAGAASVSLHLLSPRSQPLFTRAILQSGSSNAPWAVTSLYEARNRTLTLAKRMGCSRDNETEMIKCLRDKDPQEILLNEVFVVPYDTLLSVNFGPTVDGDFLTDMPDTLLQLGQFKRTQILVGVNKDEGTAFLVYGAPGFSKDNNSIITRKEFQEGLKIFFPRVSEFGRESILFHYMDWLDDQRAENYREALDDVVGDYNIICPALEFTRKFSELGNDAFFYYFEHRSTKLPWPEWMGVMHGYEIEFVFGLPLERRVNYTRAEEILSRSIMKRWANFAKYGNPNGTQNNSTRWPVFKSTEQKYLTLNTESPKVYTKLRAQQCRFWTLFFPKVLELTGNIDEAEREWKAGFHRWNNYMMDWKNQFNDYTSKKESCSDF

With `CC(C)=CCOc1ccc2c(c1)OC(c1ccccc1Br)CC2=O` (centres undefined), the half-inhibitory concentration (IC50) in assay [1] stood at 3.18 µM; in assay [2] it was 5.02 µM; in assay [4], 2.02 µM. The Ratio IC50 in assay [3] turned out to be 2.49.

`CC(C)=CCOc1cc(O)c2c(c1)OC(c1ccc(C)cc1C)CC2=O` (centres undefined): the figures for the IC50 in assay [1], in assay [2] and in assay [4] were 6.38 µM, 3.92 µM and 0.72 µM, respectively. In addition, in assay [3], the Ratio IC50 stood at 5.44.

For the compound `CC(C)=CCOc1cc(O)c2c(c1)OC(c1ccc(Cl)cc1)CC2=O` (centres undefined), the half-maximal inhibitory concentration (IC50) in assay [1] is 7.02 µM; in assay [2], 7.07 µM; in assay [4] it was 1.17 µM. Also, in assay [3], the Ratio IC50 stood at 6.04.

Regarding `CC(C)=CCOc1ccc2c(c1)OC(c1ccccc1F)CC2=O` (centres undefined), the concentration for half-maximal inhibition (IC50) was determined as 6.36 µM in assay [1], 5.47 µM in assay [2] and 1.92 µM in assay [4]. Besides, in assay [3], the Ratio IC50 is 2.85.

Consider `CC(C)=CCOc1ccc2c(c1)OC(c1ccccc1Cl)CC2=O` (centres undefined), for which the IC50 in assay [1] was found to be 8.02 µM; in assay [2] it was 5.37 µM; in assay [4] it was 3.17 µM. Moreover, the Ratio IC50 in assay [3] turned out to be 1.69.

`CC(C)=CCOc1cc(O)c2c(c1)OC(c1ccc(C)cc1)CC2=O` (centres undefined): the IC50 was determined as 4.36 µM in assay [1], 6.54 µM in assay [2] and 1 µM in assay [4]. In addition, the Ratio IC50 in assay [3] was found to be 6.54.

As to `COc1ccc(C2CC(=O)c3ccc(OCC=C(C)C)cc3O2)cc1` (centres undefined), the figures for the IC50 in assay [1], in assay [2] and in assay [4] were 10.2 µM, 4.54 µM and 0.63 µM, respectively. Further, the Ratio IC50 in assay [3] came to 7.21.

On to `CC(C)=CCOc1cc(O)c2c(c1)OC(c1cccc(Cl)c1)CC2=O` (centres undefined), for which the concentration for half-maximal inhibition (IC50) in assay [1] amounted to 6.06 µM; in assay [2] it was 6.82 µM; in assay [4], 0.99 µM. The Ratio IC50 in assay [3] worked out at 6.89.

For `CC(C)=CCOc1ccc2c(c1)OC(c1ccc(Br)cc1)CC2=O` (centres undefined), the values for the half-maximal inhibitory concentration (IC50) in assay [1], in assay [2] and in assay [4] were 8.12 µM, 3.87 µM and 0.77 µM, respectively. The Ratio IC50 in assay [3] turned out to be 5.03.

For `CC(C)=CCOc1cc(O)c2c(c1)OC(c1cccc(Br)c1)CC2=O` (centres undefined), the IC50 turned out to be 4.04 µM in assay [1], 5.22 µM in assay [2] and 0.82 µM in assay [4]. In addition, the Ratio IC50 in assay [3] came out at 6.37.

In the case of `CC(C)=CCOc1cc(O)c2c(c1)OC(c1ccc(Cl)cc1Cl)CC2=O` (centres undefined), the IC50 in assay [1] was determined as 3.34 µM; in assay [2], 6.94 µM; in assay [4], 1.04 µM. The Ratio IC50 in assay [3] was determined as 6.67.

As for `CC(C)=CCOc1cc(O)c2c(c1)OC(c1cccc(F)c1)CC2=O` (centres undefined), the concentration for half-maximal inhibition (IC50) in assay [1] worked out at 7.24 µM; in assay [2] it was 5.09 µM; in assay [4], 0.92 µM. Also, the Ratio IC50 in assay [3] turned out to be 5.53.

As to `O=C1C[C@@H](c2ccc(O)cc2)Oc2cc(O)ccc21` [LIQUIRTIGENIN], the IC50 in assay [1] turned out to be 8.96 µM; in assay [2] it was 14 µM; in assay [4], 9.1 µM. Moreover, the Ratio IC50 in assay [3] stood at 1.55.

As to `CC(C)=CCOc1ccc2c(c1)OC(c1ccccc1)CC2=O` (centres undefined), the concentration for half-maximal inhibition (IC50) in assay [1] worked out at 6.07 µM; in assay [2], 9.54 µM; in assay [4] it was 5.32 µM. Further, the Ratio IC50 in assay [3] stood at 1.79.

Turning to `CC(C)=CCOc1ccc2c(c1)OC(c1cccc(Cl)c1)CC2=O` (centres undefined), the figures for the IC50 in assay [1], in assay [2] and in assay [4] were 6.3 µM, 3.59 µM and 1.5 µM, respectively. The Ratio IC50 in assay [3] was determined as 2.39.

On to `COc1ccc(C2CC(=O)c3c(O)cc(OCC=C(C)C)cc3O2)cc1` (centres undefined), for which the IC50 was 5.08 µM in assay [1], 5.77 µM in assay [2] and 0.27 µM in assay [4]. Moreover, in assay [3], the Ratio IC50 came to 21.4.

With `CC(C)=CCOc1ccc2c(c1)OC(c1ccc(Cl)cc1Cl)CC2=O` (centres undefined), the IC50 in assay [1] came out at 5.26 µM; in assay [2], 3.47 µM; in assay [4], 1.33 µM. The Ratio IC50 in assay [3] came out at 2.61.

Turning to `COc1ccc(C2CC(=O)c3c(O)cc(OCC=C(C)C)cc3O2)c(OC)c1` (centres undefined), the IC50 in assay [1] is 2.32 µM; in assay [2], 5.46 µM; in assay [5], above 100 µM; in assay [4], 0.09 µM; in assay [7] it was above 100 µM. Moreover, in assay [3], the Ratio IC50 is 60.7. The inhibition result in assay [6] and in assay [8] was “Active” throughout.

Turning to `CC(C)=CCOc1ccc2c(c1)OC(c1cccc(Br)c1)CC2=O` (centres undefined), the 50% inhibitory concentration (IC50) worked out at 5.28 µM in assay [1], 4.5 µM in assay [2] and 1.84 µM in assay [4]. Moreover, in assay [3], the Ratio IC50 was 2.45.

In the case of `Cc1c(C)c2c(c(C)c1O)CCC(C)(C(=O)O)O2` (centres undefined) [TROLOX], the concentration for half-maximal inhibition (IC50) in assay [1] came out at 6.12 µM.

Turning to `CC(C)=CCOc1ccc2c(c1)OC(c1ccc(O)cc1)CC2=O` (centres undefined), the IC50 in assay [1] was found to be 6.67 µM; in assay [2] it was 5.02 µM; in assay [4] it was 3.09 µM. The Ratio IC50 in assay [3] amounted to 1.62.

As for `CC(C)=CCOc1cc(O)c2c(c1)OC(c1ccccc1Br)CC2=O` (centres undefined), the 50% inhibitory concentration (IC50) came out at 3.82 µM in assay [1], 3.87 µM in assay [2] and 1.18 µM in assay [4]. Also, the Ratio IC50 in assay [3] came to 3.28.

On to `CC(C)=CCOc1ccc2c(c1)OC(c1ccc(C)cc1C)CC2=O` (centres undefined), for which the IC50 in assay [1] worked out at 8.26 µM; in assay [2] it was 3.42 µM; in assay [4] it was 0.94 µM. The Ratio IC50 in assay [3] is 3.64.

As for `CC(C)=CCOc1ccc2c(c1)OC(c1ccc(Cl)cc1)CC2=O` (centres undefined), the 50% inhibitory concentration (IC50) in assay [1] is 6.97 µM; in assay [2] it was 4.22 µM; in assay [4] it was 2.12 µM. In addition, in assay [3], the Ratio IC50 was found to be 1.99.

As to `CC(C)=CCOc1cc(O)c2c(c1)OC(c1ccc(O)cc1)CC2=O` (centres undefined), the half-maximal inhibitory concentration (IC50) came to 5.34 µM in assay [1], 5.38 µM in assay [2] and 2.37 µM in assay [4]. Moreover, the Ratio IC50 in assay [3] is 2.27.

Take `CC(C)=CCOc1ccc2c(c1)OC(c1cccc(F)c1)CC2=O` (centres undefined): the IC50 in assay [1] was found to be 4.28 µM; in assay [2], 4.02 µM; in assay [4] it was 1.48 µM. Moreover, the Ratio IC50 in assay [3] was 2.72.

With `CC(C)=CCOc1cc(O)c2c(c1)OC(c1ccccc1)CC2=O` (centres undefined), the results for the 50% inhibitory concentration (IC50) in assay [1], in assay [2] and in assay [4] were 7.32 µM, 6.54 µM and 3.04 µM, respectively. The Ratio IC50 in assay [3] was determined as 2.15.

Consider `CC(C)=CCOc1cc(O)c2c(c1)OC(c1ccccc1Cl)CC2=O` (centres undefined), for which the IC50 was determined as 4.27 µM in assay [1], 7.54 µM in assay [2] and 2.14 µM in assay [4]. The Ratio IC50 in assay [3] amounted to 3.52.

Regarding `CC(C)=CCOc1cc(O)c2c(c1)OC(c1ccc(F)cc1)CC2=O` (centres undefined), the figures for the IC50 in assay [1], in assay [2] and in assay [4] were 6.06 µM, 6.84 µM and 0.24 µM, respectively. For the same compound, the Ratio IC50 in assay [3] stood at 28.5.

For the compound `CC(C)=CCOc1cc(O)c2c(c1)OC(c1ccc(Br)cc1)CC2=O` (centres undefined), the 50% inhibitory concentration (IC50) was 2.77 µM in assay [1]; 6.04 µM in assay [2]; above 100 µM in assay [5]; 0.11 µM in assay [4]; above 80 µM in assay [7]. Further, in assay [3], the Ratio IC50 came out at 54.9.

With `CC(C)=CCOc1ccc2c(c1)OC(c1ccc(C)cc1)CC2=O` (centres undefined), the half-maximal inhibitory concentration (IC50) came out at 4.44 µM in assay [1], 4.09 µM in assay [2] and 1.12 µM in assay [4]. Also, the Ratio IC50 in assay [3] came out at 3.65.

For the compound `COc1ccc(C2CC(=O)c3ccc(OCC=C(C)C)cc3O2)c(OC)c1` (centres undefined), the half-inhibitory concentration (IC50) in assay [1] was determined as 8.18 µM; in assay [2] it was 5.65 µM; in assay [4], 0.37 µM. Moreover, the Ratio IC50 in assay [3] amounted to 15.3.

`CC(C)=CCOc1ccc2c(c1)OC(c1ccc(F)cc1)CC2=O` (centres undefined): the IC50 came out at 7.32 µM in assay [1], 2.58 µM in assay [2] and 0.55 µM in assay [4]. In addition, the Ratio IC50 in assay [3] was found to be 4.69.

Regarding `CC(C)=CCOc1cc(O)c2c(c1)OC(c1ccccc1F)CC2=O` (centres undefined), the results for the IC50 in assay [1], in assay [2] and in assay [4] were 5.3 µM, 7.37 µM and 1.27 µM, respectively. For the same compound, in assay [3], the Ratio IC50 came to 5.8.

One may read the IC50 as the concentration that inhibits the measured activity by half.
